Article PMC11697714, “Strigolactones initiate the formation of haustorium-like structures in Castilleja” (iScience, 2024)
Where two headings read alike, the source gives them in different places.

Key:
[1] = molecular target: T1, KAI2d15 (Castilleja foliolosa, UniProt A0ABD3DF95); assay: differential scanning fluorimetry, SYPRO Orange; format: binding; details: 20 mM Tris-HCl, 30 mM NaCl, 1 mM TCEP, pH 7.7
T1 construct: GST fusion (pGEX-4T-1) in E. coli BL21, GST cut with HRV 3C leaving N-terminal Gly-Pro; synthetic codon-optimised gene; catalytic triad S95, D217, H246; entrance M142, M153, M157; genome GenBank JAVIJP000000000

[2] = molecular target: T2, KAI2d15 (Castilleja foliolosa, UniProt A0ABD3DF95, M143V/M154V/M158V, form not given); assay: differential scanning fluorimetry, SYPRO Orange; format: binding; details: 20 mM Tris-HCl, 30 mM NaCl, 1 mM TCEP, pH 7.7
T2 construct: GST fusion (pGEX-4T-1) in E. coli BL21, GST cut with HRV 3C leaving N-terminal Gly-Pro; synthetic codon-optimised gene; catalytic triad S95, D217, H246; entrance M142, M153, M157; genome GenBank JAVIJP000000000

[3] = molecular target: T3, KAI2d8 (Castilleja foliolosa, UniProt A0ABD3DF32); assay: differential scanning fluorimetry, SYPRO Orange; format: binding; details: 20 mM Tris-HCl, 30 mM NaCl, 1 mM TCEP, pH 7.7
T3 construct: GST fusion (pGEX-4T-1) in E. coli BL21, GST cut with HRV 3C leaving N-terminal Gly-Pro; synthetic codon-optimised gene; genome GenBank JAVIJP000000000
T3 sequence (A0ABD3DF32 1-275): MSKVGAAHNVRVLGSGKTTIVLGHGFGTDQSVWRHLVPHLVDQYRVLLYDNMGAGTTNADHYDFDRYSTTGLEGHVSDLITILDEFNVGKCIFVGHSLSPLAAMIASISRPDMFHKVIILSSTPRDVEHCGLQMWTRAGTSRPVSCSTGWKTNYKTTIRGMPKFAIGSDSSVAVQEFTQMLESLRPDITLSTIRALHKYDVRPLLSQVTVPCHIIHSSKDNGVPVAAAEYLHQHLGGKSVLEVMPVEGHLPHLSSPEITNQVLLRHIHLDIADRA

[4] = test system: T4, KAI2i1; assay: fluorescent hydrolysis, Michaelis-Menten; format: biochemical, Castilleja foliolosa
T4 construct: GST fusion (pGEX-4T-1) in E. coli BL21, GST cut with HRV 3C leaving N-terminal Gly-Pro; synthetic codon-optimised gene; genome GenBank JAVIJP000000000
Source text: fluorescent hydrolysis, Michaelis-Menten on KAI2i1 | Michaelis-Menten experiments using the large fluorescent strigolactone analog Yoshimulactone Green (YLG)

[5] = molecular target: T2, KAI2d15; assay: fluorescent hydrolysis, Michaelis-Menten; format: biochemical
[6] = molecular target: T1, KAI2d15; assay: fluorescent hydrolysis, Michaelis-Menten; format: biochemical
[7] = test system: T5, KAI2d14; assay: fluorescent hydrolysis, Michaelis-Menten; format: biochemical, Castilleja foliolosa
T5 construct: GST fusion (pGEX-4T-1) in E. coli BL21, GST cut with HRV 3C leaving N-terminal Gly-Pro; synthetic codon-optimised gene; genome GenBank JAVIJP000000000
Source text: fluorescent hydrolysis, Michaelis-Menten on KAI2d14 | Michaelis-Menten experiments using the large fluorescent strigolactone analog Yoshimulactone Green (YLG)

[8] = substrate: CCOC(=O)c1ccccc1-c1c2ccc(=O)cc-2oc2cc(OC3C=C(C)C(=O)O3)ccc12; assay: fluorescent hydrolysis, Michaelis-Menten; format: biochemical, Castilleja foliolosa
Source text: fluorescent hydrolysis, Michaelis-Menten on KAI2d9 | Michaelis-Menten experiments using the large fluorescent strigolactone analog Yoshimulactone Green (YLG)

[9] = substrate: CCOC(=O)c1ccccc1-c1c2ccc(=O)cc-2oc2cc(OC3C=C(C)C(=O)O3)ccc12; assay: fluorescent hydrolysis, Michaelis-Menten; format: biochemical, Castilleja foliolosa; remark: listed apart in the source
Source text: fluorescent hydrolysis, Michaelis-Menten on KAI2d8 | Michaelis-Menten experiments using the large fluorescent strigolactone analog Yoshimulactone Green (YLG)

T1 sequence (A0ABD3DF95 entry or part of it): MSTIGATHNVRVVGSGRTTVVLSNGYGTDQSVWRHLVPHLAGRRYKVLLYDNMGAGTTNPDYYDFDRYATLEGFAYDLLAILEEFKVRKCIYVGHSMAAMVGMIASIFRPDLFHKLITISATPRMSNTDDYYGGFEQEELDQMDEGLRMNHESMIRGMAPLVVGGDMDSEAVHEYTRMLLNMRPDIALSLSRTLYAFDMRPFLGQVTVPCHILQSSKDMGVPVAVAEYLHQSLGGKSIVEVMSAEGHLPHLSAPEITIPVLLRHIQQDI
T2 sequence (A0ABD3DF95 entry or part of it M143V/M154V/M158V, form open): as the sequence (A0ABD3DF95 entry or part of it) above, with M143V, M154V, M158V counted along it

## CC1=C[C@H](O/C=C2/C(=O)O[C@@H]3C4=C(C[C@H]23)[C@@H](O)CCC4(C)C)OC1=O [strigol]
[1]
  differential scanning fluorimetry, SYPRO Orange: wild-type protein destabilized at lower concentrations of strigol or orobanchol
[2]
  differential scanning fluorimetry, SYPRO Orange: DSF experiments with four different strigolactone molecules, testing both the variant and the wild-type protein

## CC1=CC(OC=C2C(=O)OC3C4=C(CCCC4(C)C)C(O)C23)OC1=O (stereo not shown) [orobanchol]
[1]
  differential scanning fluorimetry, SYPRO Orange: wild-type protein destabilized at lower concentrations of strigol or orobanchol
[2]
  differential scanning fluorimetry, SYPRO Orange: DSF experiments with four different strigolactone molecules, testing both the variant and the wild-type protein

## CC1=C[C@H](O/C=C2/C(=O)O[C@@H]3c4ccccc4C[C@H]23)OC1=O [GR24 5DO]
[3]
  differential scanning fluorimetry, SYPRO Orange: A weaker but discernible destabilization was noted with KAI2d8
[2]; printed only as GR24
  differential scanning fluorimetry, SYPRO Orange: mutant protein showed destabilization at lower ligand concentrations when GR24 or 5-deoxystrigol were present

## CC1=C[C@H](O/C=C2/C(=O)O[C@@H]3C4=C(CCCC4(C)C)C[C@H]23)OC1=O [5-deoxystrigol]
[1]
  differential scanning fluorimetry, SYPRO Orange: DSF experiments with four different strigolactone molecules, testing both the variant and the wild-type protein
[2]
  differential scanning fluorimetry, SYPRO Orange: mutant protein showed destabilization at lower ligand concentrations when GR24 or 5-deoxystrigol were present

## CCOC(=O)c1ccccc1-c1c2ccc(=O)cc-2oc2cc(OC3C=C(C)C(=O)O3)ccc12 (stereo not shown) [Yoshimulactone Green]
[4]
  Km: 3.1 ± 0.7 µM
[5]
  Km: 2.4 µM
[6]
  Km: 0.8 µM
[7]
  Km: 1.1 ± 0.3 µM

B1: KAI2d9 (Castilleja foliolosa) (protein)
chain: MSTVGSAHNVQVIGSGETTVVLGHGYGTDQSVWKNLVPHLVDQYKVLLFDNMGAGTTNPDYFDFERYSTLEGYAYDLIAILEEFNVHKCIYVGHSMSAIAGAIASIFRPDLFHKLIMICASPRLTNTGDYYGGFKQEELEQLSGAMESNFQSMAMGRAPLVIGSDLESEAVQEYCRTLFNMRPDISFSVVRTIFALDMRPFLPQVTVPCHIIQSSKDIYVPLSVGEYLHQNLGGKSIVEVMPTQGHLPHLSAPEVTNPVLLRHIQQDIADA
notes: GST fusion (pGEX-4T-1) in E. coli BL21, GST cut with HRV 3C leaving N-terminal Gly-Pro; synthetic codon-optimised gene; genome GenBank JAVIJP000000000
[8]
  Km: 0.5 ± 0.1 µM
  kcat: 600 ± 49 s⁻¹

B2: KAI2d8 (Castilleja foliolosa) (protein)
chain: T3 sequence (A0ABD3DF32 1-275)
notes: as for B1
[9]
  Km: 6.6 ± 0.2 µM
  kcat: 2780 ± 193 s⁻¹
